In ChEMBL document CHEMBL1152857, “Possible anticancer agents: QSAR analogs of glutamamide: synthesis and pharmacological activity of 1,5-N,N'-disubstituted-2-(substituted benzenesulphonyl) glutamamides” (2009):

Columns and labels:
[1] = test system: IMR-32; assay: Cytotoxicity against human IMR32 cells at 60 ug/ml by MTT assay; assay type: functional
[2] = Anticancer activity against mouse EAC cells xenografted in Swiss albino mouse assessed as inhibition of ascitic fluid weight; assay type: functional, Ehrlich
[3] = Anticancer activity against mouse EAC cells xenografted in Swiss albino mouse assessed as inhibition of ascitic cell count; assay type: functional, Ehrlich
[4] = Anticancer activity against mouse EAC cells xenografted in Swiss albino mouse assessed as inhibition of ascitic fluid weight at 1 mg/kg; assay type: functional; conditions: Ehrlich
[5] = Anticancer activity against mouse EAC cells xenografted in Swiss albino mouse assessed as inhibition of ascitic cell count at 1 mg/kg; assay type: functional; conditions: Ehrlich

| SMILES | inhibition at 60 µg/mL [1] [%] | inhibition (INH) [2] [%] | inhibition (INH) [3] [%] | inhibition in vivo at 1 mg/kg [4] [%] | inhibition in vivo at 1 mg/kg [5] [%] |
| --- | --- | --- | --- | --- | --- |
| CC(C)CNC(=O)CCC(NS(=O)(=O)c1ccc(Br)cc1)C(=O)NCC(C)C (stereo not given) | 17.1 | 54 | 50.8 |  |  |
| O=C(CCC(NS(=O)(=O)c1ccc(Br)cc1)C(=O)NC1CCCCC1)NC1CCCCC1 (stereo not given) | 18.4 | 43 | 47 |  |  |
| O=C(CCC(NS(=O)(=O)c1ccc(Cl)c(Cl)c1)C(=O)NC1CCCCC1)NC1CCCCC1 (stereo not given) | 24 | 16.8 | 17.4 |  |  |
| O=C(CCC(NS(=O)(=O)c1cc(Cl)ccc1Cl)C(=O)NCc1ccccc1)NCc1ccccc1 (stereo not given) | 13.4 | 49.9 | 53.1 |  |  |
| O=C(CCC(NS(=O)(=O)c1ccc(Cl)c(Cl)c1)C(=O)NCc1ccccc1)NCc1ccccc1 (stereo not given) | 11.4 | 40 | 45.3 |  |  |
| CCNC(=O)CCC(NS(=O)(=O)c1cc(C)ccc1Cl)C(=O)NCC (stereo not given) | 31.8 | 28.1 | 32.3 |  |  |
| CCNC(=O)CCC(NS(=O)(=O)c1ccc(C(C)(C)C)cc1)C(=O)NCC (stereo not given) | 58.4 | 30.8 | 21.6 |  |  |
| CC(C)CNC(=O)CCC(NS(=O)(=O)c1cc(Cl)ccc1Cl)C(=O)NCC(C)C (stereo not given) | 20.4 | 42.5 | 79.3 |  |  |
| CCCCCCNC(=O)CCC(NS(=O)(=O)c1cc(Cl)ccc1Cl)C(=O)NCCCCCC (stereo not given) | 12.4 | 31.9 | 52.9 |  |  |
| CC(C)NC(=O)CCC(NS(=O)(=O)c1ccc(C(C)(C)C)cc1)C(=O)NC(C)C (stereo not given) | 65.6 | 44.7 | 34.1 |  |  |
| Cc1ccc(S(=O)(=O)NC(CCC(N)=O)C(N)=O)c(C)c1 (stereo not given) | 28.2 | 31.2 | 35.2 |  |  |
| O=C(CCC(NS(=O)(=O)c1ccc(Br)cc1)C(=O)Nc1ccccc1)Nc1ccccc1 (stereo not given) | 10 | 63.4 | 66.5 |  |  |
| CCCNC(=O)CCC(NS(=O)(=O)c1cc(C)ccc1Cl)C(=O)NCCC (stereo not given) | 14.9 |  |  |  |  |
| CC(C)(C)c1ccc(S(=O)(=O)NC(CCC(N)=O)C(N)=O)cc1 (stereo not given) |  | 27.5 | 42.15 |  |  |
| CC(C)NC(=O)CCC(NS(=O)(=O)c1cc(Cl)ccc1Cl)C(=O)NC(C)C (stereo not given) | 16.7 | 38.5 | 73.3 |  |  |
| Cc1ccc(Cl)c(S(=O)(=O)NC(CCC(=O)NCC(C)C)C(=O)NCC(C)C)c1 (stereo not given) |  | 27.9 | 40 |  |  |
| Cc1ccc(Cl)c(S(=O)(=O)NC(CCC(=O)NC2CCCCC2)C(=O)NC2CCCCC2)c1 (stereo not given) | 49.7 | 40.2 | 35 |  |  |
| Cc1ccc(Cl)c(S(=O)(=O)NC(CCC(=O)NCc2ccccc2)C(=O)NCc2ccccc2)c1 (stereo not given) |  | 36.5 | 50.5 |  |  |

| SMILES | inhibition at 60 µg/mL [1] [%] | inhibition (INH) [2] [%] | inhibition (INH) [3] [%] | inhibition in vivo at 1 mg/kg [4] [%] | inhibition in vivo at 1 mg/kg [5] [%] |
| --- | --- | --- | --- | --- | --- |
| CCCCCNC(=O)CCC(NS(=O)(=O)c1cc(C)ccc1Cl)C(=O)NCCCCC (stereo not given) | 14.7 | 33.3 | 47.1 |  |  |
| CCCCCCNC(=O)CCC(NS(=O)(=O)c1cc(C)ccc1Cl)C(=O)NCCCCCC (stereo not given) | 11.3 | 24.2 | 33.4 |  |  |
| Cc1ccc(Cl)c(S(=O)(=O)NC(CCC(N)=O)C(N)=O)c1 (stereo not given) | 25.8 | 36.5 | 28.6 |  |  |
| CCCCNC(=O)CCC(NS(=O)(=O)c1ccc(C)cc1C)C(=O)NCCCC (stereo not given) | 46.1 | 46.1 | 35.6 |  |  |
| CCCCCNC(=O)CCC(NS(=O)(=O)c1ccc(Cl)c(Cl)c1)C(=O)NCCCCC (stereo not given) | 20.8 | 28.1 | 10 |  |  |
| CCCCNC(=O)CCC(NS(=O)(=O)c1cc(C)ccc1Cl)C(=O)NCCCC (stereo not given) | 18 | 25.2 | 43.5 |  |  |
| Cc1ccc(Cl)c(S(=O)(=O)NC(CCC(=O)Nc2ccccc2)C(=O)Nc2ccccc2)c1 (stereo not given) |  | 41.2 | 45.5 |  |  |
| CCCCNC(=O)CCC(NS(=O)(=O)c1cc(Cl)ccc1Cl)C(=O)NCCCC (stereo not given) | 15.8 | 34 | 57.9 |  |  |
| CCCCCCNC(=O)CCC(NS(=O)(=O)c1ccc(C)cc1C)C(=O)NCCCCCC (stereo not given) | 66 | 38.4 | 52.1 |  |  |
| O=C(CCC(NS(=O)(=O)c1ccc(Br)cc1)C(=O)NCc1ccccc1)NCc1ccccc1 (stereo not given) |  | 70 | 48.9 |  |  |
| CCCCCNC(=O)CCC(NS(=O)(=O)c1cc(Cl)ccc1Cl)C(=O)NCCCCC (stereo not given) | 12.2 | 41.2 | 61.1 |  |  |
| Cc1ccc(Cl)c(S(=O)(=O)NC(CCC(=O)NC(C)C)C(=O)NC(C)C)c1 (stereo not given) | 29.8 | 81.5 | 53 |  |  |
| CCNC(=O)CCC(NS(=O)(=O)c1cc(Cl)ccc1Cl)C(=O)NCC (stereo not given) | 12.9 | 60.5 | 67.5 |  |  |
| O=C(CCC(NS(=O)(=O)c1cc(Cl)ccc1Cl)C(=O)Nc1ccccc1)Nc1ccccc1 (stereo not given) | 22.9 | 35.2 | 71.1 |  |  |
| [N-]=[N+]=CC(=O)CC[C@H](N)C(=O)O [6-DIAZO-5-OXO-L-NORLEUCINE] |  |  |  | 100 | 100 |
| N#[N+]/C=C(\[O-])OC[C@H](N)C(=O)O [AZASERIN] |  |  |  | 100 | 100 |
| CO[C@@]12[C@H](COC(N)=O)C3=C(C(=O)C(C)=C(N)C3=O)N1C[C@@H]1N[C@@H]12 [MITOMYCIN] |  |  |  | 100 | 100 |
